Reference: patent US10774080B2, “Pyrimidine compound as JAK kinase inhibitor” (THERAVANCE BIOPHARMA R&D IP, LLC, priority 2017, dated 2020)

Tests used:
[1] = tested on: IL-2 stimulated STAT5 phosphorylation in Tall-1 human T cell line; assay: Assay 11: inhibition of IL-2 stimulated pSTAT5 in Tall-1 T cells; format: cell-based; conditions: read-out: pIC50 for inhibition of IL-2 induced STAT5 phosphorylation (converted)
Method: Assay 11: Inhibition of IL-2 Stimulated pSTAT5 in Tall-1 T Cells
The potency of test compounds for inhibition of interleukin-2 (IL-2) stimulated STAT5 phosphorylation was measured in the Tall-1 human T cell line (DSMZ) using AlphaLisa. Because IL-2 signals through JAK1/3, this assay provides a measure of JAK1/3 cellular potency.
Phosphorylated STAT5 was measured via the AlphaLISA SureFire Ultra pSTAT5 (Tyr694/699) kit (PerkinElmer).
Human T cells from the Tall-1 cell line were cultured in a 37° C., 5% CO2 humidified incubator in RPMI (Life Technologies) supplemented with 15% Heat Inactivated Fetal Bovine Serum (FBS, Life Technologies), 2 mM Glutamax (Life Technologies), 25 mM HEPES (Life Technologies) and 1× Pen/Strep (Life Technologies). […] Phosphorylated STAT5 was measured via the pSTAT5 AlphaLisa kit (PerkinElmer). […] Luminescence was measured with excitation at 689 nm and emission at […] using an EnVision plate reader (PerkinElmer) under green filtered <100 lux light.
To determine the inhibitory potency of test compounds in response to IL-2, the average emission intensity of beads bound to pSTAT5 was measured in a human T cell line. IC50 values were determined from analysis of the inhibition curves of signal intensity versus compound concentration. Data are expressed as pIC50 (negative decadic logarithm IC50) values (mean±standard deviation).

[2] = Assay 5: rat pharmacokinetics; format: in vivo, male Sprague Dawley rats; conditions: male, Sprague Dawley
Method: Assay 5: Rat Pharmacokinetics Assay The objective of this study was to assess the pharmacokinetics of compound (I) in plasma following single oral (PO, n=3) or intravenous (IV, n=2) administration to male Sprague Dawley rats. Three male Sprague Dawley rats were administered a single IV dose of compound (I) (1.0 mg/kg in 5% DMSO+20 mM Citrate buffer pH4) via a jugular vein catheter or a single PO dose of 5 mg/kg via oral gavage (5.0 mg/kg in 1% HPMC with 0.1% Tween80). At 0.25, 0.5, 1, 2, 4, 6, and 24 hours after dose administration blood samples were drawn via jugular vein catheter into EDTA tubes and maintained chilled on ice prior to centrifugation (12,000 rpm, 4 min, 4° C.). Aliquots of plasma were transferred to cluster tubes and stored frozen (−80° C.) prior to bioanalysis. Plasma samples were vortexed prior to transferring a 50 μL aliquot of sample to a 96-well plate and extracted with 200 μL acetonitrile containing an internal standard. Following extraction, samples were centrifuged for 10 min at 3700 RPM (2809×g). The supernatant was transferred to a new 96-well plate and then diluted in 0.2% formic acid in water (3-fold dilution). For all samples, 10 μL was injected onto a Waters Xbridge (C18 30×2.1 mm) column with a flow rate of 0.80 mL/min. Mobile phase A consisted of 0.2% formic acid in water and mobile phase B 0.2% formic acid in acetonitrile. Plasma levels of compound (I) were determined by LC-MS-MS analysis. Standard PK parameters were determined using Phoenix WinNonlin, (Certara Inc.).

## CCS(=O)(=O)N1[C@@H]2CCC[C@H]1C[C@H](N(C)c1nc(CO)c(F)c(Nc3cc(C)[nH]n3)n1)C2 [Compound (I), (2-(((1R,3s,5S)-9-(ethylsulfonyl)-9-azabicyclo[3.3.1]nonan-3-yl)(methyl)amino)-5-fluoro-6-((5-methyl-1H-pyrazol-3-yl)amino)pyrimidin-4-yl)methanol]
[1]
  IC50: 3.98 nM
[2]; plasma, rat, IV (1 mg/kg)
  clearance: 59 mL/min/kg
[2]; plasma, rat, IV (1 mg/kg), read-out: Vdss
  Vd: 1.1 L/kg
[2]; plasma, rat, PO (5 mg/kg)
  bioavailability: 7.7%
[2]; rat plasma, IV (1 mg/kg)
  AUC(0-t): 291 ng·h/mL
  Cmax: 907 ng/mL
[2]; rat plasma, IV (1 mg/kg), read-out: T½ (converted)
  half-life: 1.34 h
[2]; rat plasma, PO (5 mg/kg)
  AUC(0-t): 112 ng·h/mL
  Cmax: 77 ng/mL
